# Where “and” joins values, the source holds several entries; their conditions need not be identical. Equal values may be shown once. Read-outs that look alike come from different tables or passages of the source.
# Legend:
# [1] = biological target: Bovine cardiac myosin (Bos taurus (Bovine), UniProt Q9BE39); assay: Cardiac muscle myosin II actin-activated ATPase assay (NADH-coupled); type: biochemical
# Procedure, shortened: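 NADH-coupled (PK/LDH) assay at 25° C: 300 nM bovine cardiac myosin, 10 μM rabbit F-actin, 1 mM ATP, 1 mM PEP, 220 μM NADH, MOPS pH 7.0, 0.5% DMSO. NADH fluorescence was followed for 30 min; Ki values came from 16-point triplicate data (top 50 uM) fitted to a quadratic one-to-one binding model.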
# [2] = biological target: Rabbit skeletal myosin; assay: Skeletal muscle myosin II actin-activated ATPase assay; type: biochemical; conditions: 20 nM skeletal muscle myosin II; read-out: SKMMII KI
# Procedure, shortened: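 NADH-coupled (PK/LDH) actin-activated ATPase at 25 °C with 20 nM rabbit skeletal myosin II, 10 μM F-actin, 1 mM ATP, 1 mM PEP, 220 μM NADH in MOPS pH 7.0, MgCl2, EGTA, BSA, DTT, 0.5% DMSO. NADH fluorescence followed 30 min; inhibitory constants from 16-point triplicate curves (top 50 uM), quadratic one-to-one fit.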
# Sequence of Bovine cardiac myosin (Q9BE39 whole entry): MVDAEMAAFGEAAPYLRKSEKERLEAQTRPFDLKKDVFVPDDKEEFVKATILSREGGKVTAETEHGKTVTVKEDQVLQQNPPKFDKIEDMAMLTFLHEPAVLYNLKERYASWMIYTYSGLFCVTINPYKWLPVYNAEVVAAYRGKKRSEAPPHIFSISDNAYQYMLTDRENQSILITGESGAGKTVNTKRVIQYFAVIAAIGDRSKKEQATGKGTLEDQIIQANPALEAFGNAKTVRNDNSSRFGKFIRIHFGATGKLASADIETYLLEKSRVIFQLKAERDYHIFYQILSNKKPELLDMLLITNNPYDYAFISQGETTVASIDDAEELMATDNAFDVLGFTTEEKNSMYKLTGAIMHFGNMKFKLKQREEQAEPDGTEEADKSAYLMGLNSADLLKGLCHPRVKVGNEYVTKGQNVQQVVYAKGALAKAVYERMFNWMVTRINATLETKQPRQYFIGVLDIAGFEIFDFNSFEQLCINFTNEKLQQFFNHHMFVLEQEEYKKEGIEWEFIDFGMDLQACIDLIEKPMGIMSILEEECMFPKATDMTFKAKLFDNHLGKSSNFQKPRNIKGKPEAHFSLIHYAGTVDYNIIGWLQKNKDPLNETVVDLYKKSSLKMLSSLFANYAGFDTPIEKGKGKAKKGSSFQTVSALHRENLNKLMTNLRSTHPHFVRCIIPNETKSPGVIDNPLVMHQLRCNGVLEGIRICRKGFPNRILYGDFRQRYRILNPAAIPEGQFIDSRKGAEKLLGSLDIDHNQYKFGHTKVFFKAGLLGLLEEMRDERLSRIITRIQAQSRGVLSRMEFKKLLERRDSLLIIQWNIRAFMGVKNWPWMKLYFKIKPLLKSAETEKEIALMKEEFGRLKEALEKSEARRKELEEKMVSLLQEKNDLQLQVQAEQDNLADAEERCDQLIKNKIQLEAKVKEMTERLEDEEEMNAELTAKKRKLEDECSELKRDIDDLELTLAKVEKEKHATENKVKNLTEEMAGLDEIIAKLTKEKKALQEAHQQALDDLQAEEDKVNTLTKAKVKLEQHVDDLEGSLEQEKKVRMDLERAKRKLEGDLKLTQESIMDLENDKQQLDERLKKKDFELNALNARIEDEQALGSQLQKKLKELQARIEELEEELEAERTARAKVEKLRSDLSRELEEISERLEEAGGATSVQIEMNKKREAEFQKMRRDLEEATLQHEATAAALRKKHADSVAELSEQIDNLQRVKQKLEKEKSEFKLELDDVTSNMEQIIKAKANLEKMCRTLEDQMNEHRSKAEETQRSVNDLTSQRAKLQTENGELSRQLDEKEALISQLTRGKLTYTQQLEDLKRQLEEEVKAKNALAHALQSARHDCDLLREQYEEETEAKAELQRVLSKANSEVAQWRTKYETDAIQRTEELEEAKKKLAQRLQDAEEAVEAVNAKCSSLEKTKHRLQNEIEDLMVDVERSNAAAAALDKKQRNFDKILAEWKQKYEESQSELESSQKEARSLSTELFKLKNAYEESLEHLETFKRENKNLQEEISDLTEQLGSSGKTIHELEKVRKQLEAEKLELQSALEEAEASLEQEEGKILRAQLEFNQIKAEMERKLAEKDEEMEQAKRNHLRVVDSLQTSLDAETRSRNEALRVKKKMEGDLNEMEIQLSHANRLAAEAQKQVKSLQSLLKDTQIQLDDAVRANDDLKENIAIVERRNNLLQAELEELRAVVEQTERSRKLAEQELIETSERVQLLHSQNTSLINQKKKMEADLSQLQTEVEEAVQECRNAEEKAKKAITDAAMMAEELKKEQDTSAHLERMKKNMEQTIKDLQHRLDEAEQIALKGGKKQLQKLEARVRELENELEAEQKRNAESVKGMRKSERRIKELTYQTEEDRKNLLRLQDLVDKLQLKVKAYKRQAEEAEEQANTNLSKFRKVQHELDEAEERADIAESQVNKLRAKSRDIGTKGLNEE
# Sequence of Bovine cardiac myosin (P85100 whole entry partner): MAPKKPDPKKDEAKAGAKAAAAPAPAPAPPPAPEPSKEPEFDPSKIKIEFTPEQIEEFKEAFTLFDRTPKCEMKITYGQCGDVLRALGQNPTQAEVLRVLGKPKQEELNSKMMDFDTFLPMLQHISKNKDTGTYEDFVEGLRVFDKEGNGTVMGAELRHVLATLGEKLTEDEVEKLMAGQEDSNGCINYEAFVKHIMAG
# Sequence of Bovine cardiac myosin (Q3SZE5 whole entry partner): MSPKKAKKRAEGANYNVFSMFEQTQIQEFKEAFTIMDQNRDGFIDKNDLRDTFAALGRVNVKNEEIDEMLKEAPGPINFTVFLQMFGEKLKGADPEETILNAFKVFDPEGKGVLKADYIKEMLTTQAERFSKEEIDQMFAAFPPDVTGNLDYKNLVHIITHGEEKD
smiles,measurement,setting,value
"Cc1ccc2c(c1)C(=O)[C@]1(O)CCN(c3ccccc3)C1=N2 [Blebbistatin, reference compound]",Ki,"[1]; 300 nM cardiac myosin, 10 μM actin, 25° C., read-out: CMMII KI",1500 nM
same,CMMII/NMII Ratio,[1]; cardiac Ki relative to NMII EC50,0.56
same,Ki,"[1]; cardiac muscle myosin II, read-out: CMMII Ki",670 nM
same,Ratio CMMII:NMII Ki/EC50,[1]; cardiac myosin II Ki over nonmuscle myosin II EC50,0.789 and 0.8
same,Ki,[2],360 nM
